Measurements as given in patent publication US20100305161A1, “COMBINATIONS OF FUNGICIDAL AZOLES AND PYRION COMPOUNDS” (priority 2007, published 2010).

Tests used:
Assay in all cases: Poison Plate Assay, MIC and synergy of combinations
Assay type in all cases: cell-based
[1] = tested on: Coriolus versicolor CTB863A; settings: Trametes versicolor, 336 h, ppm total active ingredient, growth evaluated after two weeks, 27° C., 70% relative humidity, read-out: MIC-values (minimum inhibitory concentration)
Method: (§1) • Test models: Fungi: to each well of a 24-well microtiter plate, 1000 μl of a rich (Potato Dextrose Agar, PDA: 4 g potato infusion, 20 g bacto dextrose and 15 g bacto agar in 1 liter deionised water) or poor (Glucose Agar, GA: 10 g glucose, 1.5 g K2HPO4, 2 g KH2PO4, 1 g (NH4)2SO4, 0.5 g MgSO4 and 12.5 g agar in 1 liter deionised water) medium containing the appropriate combination of the test compounds in one of the concentrations of a dose series is added. The nutrient medium is inoculated with the test fungi by adding a spore/mycelium suspension (10 μl) or a small piece of agar from the margin of an actively growing colony and incubated under dark at 27° C. with 70% relative humidity. The growth of the fungi is evaluated after two weeks. • Bacteria: to each well of a 24-well microtiter plate, 1000 μL Tryptose Agar (TA, 20 g bacto tryptose agar, 5 g sodium chloride, 1 g bacto dextrose and 15 g agar in 1 liter deionised water), containing the test compounds in one of the concentrations of a dose series is added. The nutrient medium is inoculated by adding 10 μl of an actively growing liquid culture of the test bacteria in tryptose broth (without agar), and incubated under dark at 27° C. with 70% relative humidity.
(§2) When the Synergy Index is greater than 1.0, antagonism is indicated. When the SI is equal to 1.0, additivity is indicated.

[2] = tested on: Chaetomium globosum ATCC6205; settings: ATCC6205, 336 h, ppm total active ingredient, growth evaluated after two weeks, 27° C., 70% relative humidity, read-out: MIC-values (minimum inhibitory concentration)
Method: as §1, §2

[3] = tested on: Ulocladium atrum IMI214699a; settings: Alternaria atra, 336 h, ppm total active ingredient, growth evaluated after two weeks, 27° C., 70% relative humidity, read-out: MIC-values (minimum inhibitory concentration)
Method: as §1
A. G. Nass (1957) “Some aspects of the notions additivity, synergism and antagonism in the simultaneous activity of two antibacterial agents in vitro” Arch. intern. […]

Row | Compound | MIC [1] [µg/mL] | MIC [2] [µg/mL] | MIC [3] [µg/mL]
1 | CCCC1COC(Cn2cncn2)(c2ccc(Cl)cc2Cl)O1 (stereo not shown) [(I-m) + (II-a) 100 + 0, 1-[[2-(2,4-dichlorophenyl)-4-propyl-1,3-dioxolan-2-yl]methyl]-1H-1,2,4-triazole] | 1.88 | 5.01 | 33.3
2 | [O-][n+]1ccccc1SSc1cccc[n+]1[O-] [(I-n) + (II-g) 0 + 100, pyrion disulfide] |  |  | 1.88
